# Data reported in EP4104902B1, “COMPOUNDS AND M[…] SAME” (priority 2020, dated 2021).
# Tested on: recombinant rabies virus 1088 strain expressing Gaussia Luciferase (GLuc) (1088/GLuc)
# Type: cell-based
# Settings: read-out: Anti-rabies activity
row,Compound,IC50 [µM]
1,CC(C)CNC(=O)[C@]12NC[C@@H]3C[C@H]1CN(CC(C)C)[C@H]2[C@@H]3Cc1ccccc1 (relative stereo) [IB-3],10 to 30
2,CC(C)CNC(=O)[C@]12NC[C@@H]3C[C@H]1CN(Cc1ccccc1)[C@H]2[C@@H]3CC(C)C (relative stereo) [IB-4],10 to 30
3,CC(C)C[C@@H]1[C@@H]2CN[C@@]3(C(=O)NCc4ccccc4)[C@@H](C2)CN(CC(C)C)[C@@H]13 (relative stereo) [IB-5],10 to 30
4,CC(C)CCN1C[C@@H]2C[C@H]3CN[C@]2(C(=O)NCc2ccccc2)[C@@H]1[C@@H]3Cc1ccccc1 (relative stereo) [IB-9],10 to 30
5,CC(C)CN1C[C@@H]2C[C@H]3CN[C@]2(C(=O)NCCc2ccccc2)[C@@H]1[C@@H]3Cc1ccccc1 (relative stereo) [IB-12],10 to 30
6,Cc1cccc(C[C@@H]2[C@@H]3CN[C@@]4(C(=O)NCc5ccccc5)[C@@H](C3)CN(CC(C)C)[C@@H]24)c1 (relative stereo) [IB-13],10 to 30
7,Cc1cccc(CNC(=O)[C@]23NC[C@@H]4C[C@H]2CN(CC(C)C)[C@H]3[C@@H]4Cc2ccccc2)c1 (relative stereo) [IB-15],10 to 30
8,"O=C(NCc1ccccc1)[C@]12NC[C@H]3C[C@H]1CN(Cc1cccc4ccccc14)[C@H]2[C@@H]3Cc1ccccc1 (relative stereo) [IB-42, (3S*,3aS*,6S*,7R*,7aS*)-N,7-dibenzyl-1-(naphthalen-1-ylmethyl)octahydro-3aH-3,6-methanopyrrolo[3,2-b]pyridine-3a-carboxamide]",10 to 30
9,CC(C)C[C@@H]1[C@@H]2CN[C@@]3(C(=O)NCc4cccc5ccccc45)[C@@H](C2)CN(CC(N)=O)[C@@H]13 (relative stereo) [IB-81],10 to 30
10,NC(=O)CN1C[C@@H]2C[C@H]3CN[C@]2(C(=O)NCc2cccc4ccccc24)[C@@H]1[C@@H]3Cc1ccccc1 (relative stereo) [IB-82],10 to 30
11,NC(=O)CN1C[C@@H]2C[C@H]3CN[C@]2(C(=O)NCc2cccc4ccccc24)[C@@H]1[C@@H]3Cc1ccc(O)cc1 (relative stereo) [IB-83],10 to 30
12,CC(C)CC[C@@H]1[C@@H]2CN[C@@]3(C(=O)NCc4cccc5ccccc45)[C@@H](C2)CN(CC(N)=O)[C@@H]13 (relative stereo) [IB-84],10 to 30
13,CC(C)CC[C@@H]1[C@@H]2CN[C@@]3(C(=O)NCCc4ccccc4)[C@@H](C2)CN(CC(N)=O)[C@@H]13 (relative stereo) [IB-89],< 5
14,NC(=O)CN1C[C@@H]2C[C@H]3CN[C@]2(C(=O)NCc2cccc4ccccc24)[C@@H]1[C@@H]3Cc1cccc2ccccc12 (relative stereo) [IB-90],< 5
15,NC(=O)CN1C[C@@H]2C[C@H]3CN[C@]2(C(=O)NCc2ccc(F)cc2)[C@@H]1[C@@H]3Cc1ccccc1 (relative stereo) [IB-92],10 to 30
16,NC(=O)CN1C[C@@H]2C[C@H]3CN[C@]2(C(=O)NCc2ccc(F)cc2)[C@@H]1[C@@H]3CCc1ccccc1 (relative stereo) [IB-95],< 5
17,NC(=O)CN1C[C@@H]2C[C@H]3CN[C@]2(C(=O)NCc2ccc(F)cc2)[C@@H]1[C@@H]3Cc1cccc2ccccc12 (relative stereo) [IB-96],10 to 30
18,NC(=O)CN1C[C@@H]2C[C@H]3CN[C@]2(C(=O)NCCc2ccccc2)[C@@H]1[C@@H]3Cc1cccc2ccccc12 (relative stereo) [IB-97],< 5
19,CC(C)CCNC(=O)[C@]12NC[C@@H]3C[C@H]1CN(CC(N)=O)[C@H]2[C@@H]3CCc1ccccc1 (relative stereo) [IB-102],< 5
20,CC(C)CCNC(=O)[C@]12NC[C@@H]3C[C@H]1CN(CC(N)=O)[C@H]2[C@@H]3Cc1cccc2ccccc12 (relative stereo) [IB-103],10 to 30
21,CCCCCCNC(=O)[C@]12NC[C@@H]3C[C@H]1CN(CC(N)=O)[C@H]2[C@@H]3Cc1ccccc1 (relative stereo) [IB-105],10 to 30
22,"CC(C)C[C@@H]1[C@@H]2CN[C@@]3(C(=O)NCc4cccc5ccccc45)[C@@H](C2)CN(CCCNC(=N)N)[C@@H]13 (relative stereo) [IB-164, (3S*, 3aS*, 6R*, 7R*, 7aS*)-1-(3-guanidinopropyl)-7-isobutyl-N-(naphthalen-1-ylmethyl)octahydro-3aH-3,6-methanopyrrolo[3,2-b]pyridine-3a-carboxamide]",< 5
23,CCCCCCNC(=O)[C@]12NC[C@@H]3C[C@H]1CN(CCCNC(=N)N)[C@H]2[C@@H]3CCc1ccccc1 (relative stereo) [IB-174],10 to 30
24,CC(C)C[C@@H]1[C@@H]2CN[C@@]3(C(=O)NC(C)C)[C@@H](C2)CN(CCCNC(=N)N)[C@@H]13 (relative stereo) [IB-176],10 to 30
25,CC(C)NC(=O)[C@]12NC[C@@H]3C[C@H]1CN(CCCNC(=N)N)[C@H]2[C@@H]3CCc1ccccc1 (relative stereo) [IB-179],10 to 30
26,N=C(N)NCCCN1C[C@@H]2C[C@H]3CN[C@]2(C(=O)NCc2ccc(F)cc2)[C@@H]1[C@@H]3Cc1ccccc1 (relative stereo) [IB-182],10 to 30
27,CC(C)CNC(=O)[C@]12NC[C@@H]3C[C@H]1CN(CC(C)C)[C@H]2[C@@H]3CCCNC(=N)N (relative stereo) [IB-187],10 to 30

row,Compound,IC50 [µM]
1,CC(C)CCNC(=O)[C@]12NC[C@@H]3C[C@H]1CN(CC(C)C)[C@H]2[C@@H]3CCCNC(=N)N (relative stereo) [IB-192],< 5
2,CC(C)CNC(=O)[C@]12NC[C@@H]3C[C@H]1CN(Cc1ccccc1)[C@H]2[C@@H]3CCCNC(=N)N (relative stereo) [IB-198],10 to 30
3,N=C(N)NCCC[C@@H]1[C@@H]2CN[C@@]3(C(=O)NCCc4ccccc4)[C@@H](C2)CN(Cc2ccccc2)[C@@H]13 (relative stereo) [IB-247],10 to 30
4,CCCCCCNC(=O)[C@]12NC[C@@H]3C[C@H]1CN(Cc1ccccc1)[C@H]2[C@@H]3CCCNC(=N)N (relative stereo) [IB-249],10 to 30
5,N=C(N)NCCC[C@@H]1[C@@H]2CN[C@@]3(C(=O)NCc4ccc(F)cc4)[C@@H](C2)CN(Cc2ccccc2)[C@@H]13 (relative stereo) [IB-250],10 to 30
6,CCCCCCNC(=O)[C@]12NC[C@@H]3C[C@H]1CN(CCc1ccccc1)[C@H]2[C@@H]3CCCNC(=N)N (relative stereo) [IB-256],10 to 30
7,N=C(N)NCCC[C@@H]1[C@@H]2CN[C@@]3(C(=O)NCc4ccccc4)[C@@H](C2)CN(Cc2ccc(F)cc2)[C@@H]13 (relative stereo) [IB-260],10 to 30
8,N=C(N)NCCC[C@@H]1[C@@H]2CN[C@@]3(C(=O)NCCc4ccccc4)[C@@H](C2)CN(Cc2ccc(F)cc2)[C@@H]13 (relative stereo) [IB-262],10 to 30
9,CC(C)CC[C@@H]1[C@@H]2CN[C@@]3(C(=O)NCCC(N)=O)[C@@H](C2)CN(Cc2ccccc2)[C@@H]13 (relative stereo) [IB-274],10 to 30
10,N=C(N)NCCCNC(=O)[C@]12NC[C@@H]3C[C@H]1CN(Cc1ccccc1)[C@H]2[C@@H]3Cc1ccccc1 (relative stereo) [IB-276],10 to 30
11,N=C(N)NCCCNC(=O)[C@]12NC[C@@H]3C[C@H]1CN(Cc1ccccc1)[C@H]2[C@@H]3CCc1ccccc1 (relative stereo) [IB-279],10 to 30
12,N=C(N)NCCCNC(=O)[C@]12NC[C@@H]3C[C@H]1CN(Cc1ccccc1)[C@H]2[C@@H]3Cc1cccc2ccccc12 (relative stereo) [IB-280],10 to 30
13,N=C(N)NCCCN1C[C@@H]2C[C@H]3CN[C@]2(C(=O)NCc2ccccc2)[C@@H]1[C@@H]3Cc1cccc2ccccc12 (relative stereo) [IB-300],10 to 30
14,N=C(N)NCCCN1C[C@@H]2C[C@H]3CN[C@]2(C(=O)NCCc2ccccc2)[C@@H]1[C@@H]3Cc1cccc2ccccc12 (relative stereo) [IB-327],10 to 30
15,CC(C)CC[C@@H]1[C@@H]2CN[C@@]3(C(=O)NCCC(N)=O)[C@@H](C2)CN(CCc2ccccc2)[C@@H]13 (relative stereo) [IB-342],10 to 30
16,N=C(N)NCCCNC(=O)[C@]12NC[C@@H]3C[C@H]1CN(CCc1ccccc1)[C@H]2[C@@H]3Cc1ccccc1 (relative stereo) [IB-344],10 to 30
17,CC(C)CC[C@@H]1[C@@H]2CN[C@@]3(C(=O)NCCCNC(=N)N)[C@@H](C2)CN(CCc2ccccc2)[C@@H]13 (relative stereo) [IB-346],10 to 30
18,N=C(N)NCCCNC(=O)[C@]12NC[C@@H]3C[C@H]1CN(CCc1ccccc1)[C@H]2[C@@H]3Cc1cccc2ccccc12 (relative stereo) [IB-347],10 to 30
19,CC(C)CC[C@@H]1[C@@H]2CN[C@@]3(C(=O)NCCC(N)=O)[C@@H](C2)CN(Cc2cccc4ccccc24)[C@@H]13 (relative stereo) [IB-349],< 5
20,CC(C)C[C@@H]1[C@@H]2CN[C@@]3(C(=O)NCCCNC(=N)N)[C@@H](C2)CN(Cc2cccc4ccccc24)[C@@H]13 (relative stereo) [IB-350],10 to 30
21,N=C(N)NCCCNC(=O)[C@]12NC[C@@H]3C[C@H]1CN(Cc1cccc4ccccc14)[C@H]2[C@@H]3Cc1ccccc1 (relative stereo) [IB-351],10 to 30
22,CC(C)CC[C@@H]1[C@@H]2CN[C@@]3(C(=O)NCCCNC(=N)N)[C@@H](C2)CN(Cc2cccc4ccccc24)[C@@H]13 (relative stereo) [IB-353],< 5
23,N=C(N)NCCCNC(=O)[C@]12NC[C@@H]3C[C@H]1CN(Cc1cccc4ccccc14)[C@H]2[C@@H]3CCc1ccccc1 (relative stereo) [IB-354],< 5
24,CC(C)CC[C@@H]1[C@@H]2CN[C@@]3(C(=O)NCCC(N)=O)[C@@H](C2)CN(CC2CCCCC2)[C@@H]13 (relative stereo) [IB-357],10 to 30
25,CC(C)CC[C@@H]1[C@@H]2CN[C@@]3(C(=O)NCCCNC(=N)N)[C@@H](C2)CN(CC2CCCCC2)[C@@H]13 (relative stereo) [IB-361],10 to 30
26,N=C(N)NCCCNC(=O)[C@]12NC[C@@H]3C[C@H]1CN(CC1CCCCC1)[C@H]2[C@@H]3CCc1ccccc1 (relative stereo) [IB-362],< 5
27,CC(C)CC[C@@H]1[C@@H]2CN[C@@]3(C(=O)NCCC(N)=O)[C@@H](C2)CN(Cc2ccc(F)cc2)[C@@H]13 (relative stereo) [IB-365],10 to 30

# Same assay, conditions: read-out: IC50
row,Compound,IC50 [µM]
1,CC(C)CNC(=O)[C@]12NC[C@@H]3C[C@H]1CN(CC(C)C)[C@H]2[C@@H]3Cc1ccccc1 (relative stereo) [IB-3],19.6
2,CC(C)CNC(=O)[C@]12NC[C@@H]3C[C@H]1CN(Cc1ccccc1)[C@H]2[C@@H]3CC(C)C (relative stereo) [IB-4],19.2
3,CC(C)C[C@@H]1[C@@H]2CN[C@@]3(C(=O)NCc4ccccc4)[C@@H](C2)CN(CC(C)C)[C@@H]13 (relative stereo) [IB-5],18.2
4,CC(C)CCN1C[C@@H]2C[C@H]3CN[C@]2(C(=O)NCc2ccccc2)[C@@H]1[C@@H]3Cc1ccccc1 (relative stereo) [IB-9],17
5,CC(C)CN1C[C@@H]2C[C@H]3CN[C@]2(C(=O)NCCc2ccccc2)[C@@H]1[C@@H]3Cc1ccccc1 (relative stereo) [IB-12],15.5
6,Cc1cccc(C[C@@H]2[C@@H]3CN[C@@]4(C(=O)NCc5ccccc5)[C@@H](C3)CN(CC(C)C)[C@@H]24)c1 (relative stereo) [IB-13],14.3
7,Cc1cccc(CNC(=O)[C@]23NC[C@@H]4C[C@H]2CN(CC(C)C)[C@H]3[C@@H]4Cc2ccccc2)c1 (relative stereo) [IB-15],15.9
